From patent EP0222996A2, “3-Amino-dihydro(1)benzopyrane and benzothiopyrane” (CIBA-GEIGY AG, priority 1985, dated 1987)
Structures can show the parent of a compound that is named as a salt. Where two headings read alike, the source gives them in different places.

Target: T1, Serotonin-(S-1A) (Rattus norvegicus, UniProt P19327)
T1 construct: Suspensionen aus Membranmaterial von Rattenhirn; from tissue; host or cells: rat brain membranes
T1 sequence (P19327 1-422): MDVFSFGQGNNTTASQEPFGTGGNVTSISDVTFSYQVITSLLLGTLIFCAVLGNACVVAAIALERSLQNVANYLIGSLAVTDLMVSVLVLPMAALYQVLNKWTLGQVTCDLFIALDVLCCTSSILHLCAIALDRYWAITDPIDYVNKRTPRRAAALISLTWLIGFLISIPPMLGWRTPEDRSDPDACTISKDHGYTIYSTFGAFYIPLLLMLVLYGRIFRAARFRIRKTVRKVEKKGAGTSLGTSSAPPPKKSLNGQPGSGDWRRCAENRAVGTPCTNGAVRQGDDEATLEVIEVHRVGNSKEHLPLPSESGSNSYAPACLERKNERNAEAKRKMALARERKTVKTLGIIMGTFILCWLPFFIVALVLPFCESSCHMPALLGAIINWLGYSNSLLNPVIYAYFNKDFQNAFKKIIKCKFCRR
Test: 3H-serotonin binding assay on rat brain membrane suspensions
Design: species or system Ratten
Excerpt: Die Serotonin-(S-1A)-Aufnahme, welche für Regulatoren mit Rezeptor-eigenschaften bei Serotonin-Agonisten indiziert ist, kann in-vitro wie folgt in einem Bindungsassay nachgewiesen werden: • Man stellt Suspensionen aus Membranmaterial von Rattenhirn her und inkubiert diese mit ^3H-Serotonin gemäss der Vorschrift von Martin und Sanders-Bush, Naunyn-Schmiederberg Arch. Pharmacol. 321, 165 (1982) und Middlemiss und Fozard Eur. J. Pharmacol., 90, 151 (1983).
In diesem Bindungsassay werden aliquote Teile von […] Zellsuspensionen zu abgepufferten ^3H-Serotonin-Lösungen mit und ohne Wirkstoff gegeben. Die Konzentration an ^3H-Serotonin ist 2 nM und man wertet die zu testenden Wirkstoffe über einen weiten Konzentrationsbereich aus. Die IC50-Werte (Konzentrationen an Wirkstoff, welche zur Hemmung von 50 % 2 nM ^3H-Serotonin nötig sind) werden graphisch bestimmt.

Row | Compound | IC50 (concentration needed to inhibit 50 % of 2 nM 3H-Serotonin, rat brain membranes, determined graphically, read-out: IC50-Werte) [nM] | IC50 [nM]
1 | CCCN(CCC)C1CSc2cccc(OCC)c2C1 (centres unmarked) [3,4-Dihydro-N,N-dipropyl-5-ethoxy-2H-[1]-benzothiopyran-3-amin-hydrochlorid] | ~21 | 
2 | CCCN(CCC)C1COc2cccc(OCC)c2C1 (centres unmarked) [5-Aethoxy-N,N-dipropyl-3,4-dihydro-2H-[1]-benzopyran-3-amin-hydrochlorid] |  | ~40
